Reference: patent publication US20250325531A1, “TREATMENT OF SYSTOLIC DYSFUNCTION” (MyoKardia, Inc., priority 2024, published 2025)

Legend:
healthy subjects = assay: Transthoracic echocardiography (TTE) pharmacodynamics after single ascending doses in healthy volunteers; type: in vivo, human; details: for SET, mean (SD) increase from Baseline: 1.5 to 2 hours postdose
Protocol: To assess pharmacodynamic effects, serial echocardiograms were performed. The sonographers used in the study completed Echo protocol training and submitted an example of a study for evaluation to the core laboratory for evaluation. The core TTE lab certified that the sonographer was able to perform the TTEs at a level satisfactory for obtaining the required protocol data.
These criteria were chosen to prevent subjects from having prolongation of SET that might lead to myocardial ischemia. Dose escalation stopping criteria also included observation of a Baseline-corrected, group mean relative increase of >20% in any 2 sequential TTE assessments in at least 2 measures of LV contractility: LVOT-VTI, LVFS, LVEF, or LVSV in subjects receiving Compound I. Placebo-controlled evaluation may have been considered. For this comparison, subjects who received placebo may have been pooled across cohorts.
PK and PD data were collected as described herein. […] Changes from Baseline at each postbaseline timepoint were assessed.
SET as determined by TTE was assessed using summary statistics. Observations and change from Baseline were summarized by treatment at each time point and the maximum change from Baseline determined for each subject. In addition, categorical analyses were performed on the number of subjects with a change from Baseline >50 msec and the number of subjects with a change from Baseline >75 msec in 1 or any 2 sequential TTE assessments. The relationship to Compound I plasma concentration to SET was explored. An analysis of SET placebo-adjusted change from Baseline was also performed.
As the Cmax occurred at between 4 and 6 hours in most of the subjects, the TTE obtained at 6 hours postdose was considered the best timepoint to explore the relationship between concentration and pharmacological effect. TTEs obtained at 1.5 and 3 hours after dosing were before the Cmax and at 9 hours were after the peak Cmax. Based on the preclinical data, it was considered unlikely that there would be a prolonged lag between the Cmax and peak pharmacological effect. As the exposure after the administration of the 350 mg and 525 mg doses were very similar, it was decided to not only present the results from these groups separately, but also to combine the data from these groups. By combining the data from the 2 groups, the number of subjects dosed was increased from 6 to 12, thus increasing the power to observe a statistically significant change from Baseline in the TTE parameters of interest.

[1] = system: patients with stable HFrEF; assay: Safety and tolerability (TEAEs, troponin, ECG, Holter) in SAD cohorts, patients with stable HFrEF; type: in vivo, human
Protocol: Safety and efficacy assessments were conducted by measuring patients' vital signs and laboratory parameters; performing TTE to measure, e.g., systolic ejection time; performing electrocardiograms (e.g., 12-lead ECG), real-time ECG telemetry (e.g., at least 3-lead), and Holter ECG; and measuring levels of troponin (e.g., troponin I and/or troponin T) and 4β-hydroxycholesterol.
The following safety laboratory parameters were measured: (1) hematology parameters (CBC, including differential count, and platelet count); (2) serum chemistry parameters (e.g., sodium, potassium, chloride, bicarbonate, calcium, magnesium, urea, creatinine, ALP, ALT, AST, total bilirubin, glucose, and CPK); and (3) urinalysis parameters (e.g., pH, protein, glucose, leukocyte cstcrasc, and blood).
Abnormal and/or rising troponin values (as per investigator's judgment and taking into account potential baseline troponin elevation frequently observed in heart failure) led to the patient being clinically evaluated for possible myocardial ischemia. […] The entire clinical context (e.g., signs, symptoms, new ECG changes, new troponin, and CK-MB abnormalities) was evaluated and correlated with any other relevant clinical findings, patient's medical history, and laboratory data to determine the clinical significance of the findings. Troponin results performed on Day 2 of Part 1 (SAD) and Day 10 of Part 2 (MAD) at a local lab were reviewed prior to the patient being discharged the next day.
Primary endpoints for this study (safety measures) included the following: treatment-emergent AEs and SAEs; ECG recordings, interpretation, and intervals; vital signs; serum Troponin I concentrations; laboratory abnormalities; and physical examination abnormalities.

[2] = 6 hours postdose, plasma concentration bin 0-1000 ng/mL (n = 29)
[3] = 6 hours postdose, plasma concentration bin 1001-2000 ng/mL (n = 9)
[4] = 6 hours postdose, plasma concentration bin >2000 ng/mL (n = 10)
[5] = plasma concentrations >2000 ng/ml, 6 hours postdose
[6] = SAD Cohorts 1 and 2, 175 mg (n = 8)
[7] = SAD Cohorts 1 and 2, 350 mg (n = 8)
[8] = SAD Cohorts 1 and 2, 400 mg Split Dose (n = 4)
[9] = SAD Cohorts 1 and 2, 550 mg Split Dose (n = 2)
[10] = SAD Cohorts 1 and 2, Total Active (n = 12)

SMILES: Cn1cc(S(=O)(=O)[C@@](C)(F)C2CCN(C(=O)Nc3ccon3)CC2)c(C(F)F)n1 [Compound I, (R)-4-(1-((3-(difluoromethyl)-1-methyl-1H-pyrazol-4-yl)sulfonyl)-1-fluoroethyl)-N-(isoxazol-3-yl) piperidine-1-carboxamide]
- SET, mean (SD) increase from Baseline (healthy subjects; 350 mg and 525 mg combined): 18.0 (19.5) msec
- SET, mean (SD) increase from Baseline (healthy subjects; 350 mg): 19.2 (20.5) msec
- DBP, placebo-corrected LS mean difference of change from Baseline (healthy subjects; [2]): 2.277 mm Hg
- E/A ratio, placebo-corrected LS mean difference of change from Baseline (healthy subjects; [2]): 0.150
- HR, placebo-corrected LS mean difference of change from Baseline (healthy subjects; [2]): −1.070 bpm
- LVEDD, placebo-corrected LS mean difference of change from Baseline (healthy subjects; [2]): −0.014 cm
- LVESD, placebo-corrected LS mean difference of change from Baseline (healthy subjects; [2]): 0.025 cm
- LVFS, placebo-corrected LS mean difference of change from Baseline (healthy subjects; [2]): −0.560%
- MPI, placebo-corrected LS mean difference of change from Baseline (healthy subjects; [2]): −0.007
- SBP, placebo-corrected LS mean difference of change from Baseline (healthy subjects; [2]): −0.623 mm Hg
- DBP, placebo-corrected LS mean difference of change from Baseline (healthy subjects; [3]): 2.937 mm Hg
- HR, placebo-corrected LS mean difference of change from Baseline (healthy subjects; [3]): 0.336 bpm
- LVEDD, placebo-corrected LS mean difference of change from Baseline (healthy subjects; [3]): −0.041 cm
- LVEDV, placebo-corrected LS mean difference of change from Baseline (healthy subjects; [3]): -6.100 mL
- MPI, placebo-corrected LS mean difference of change from Baseline (healthy subjects; [3]): −0.021
- SBP, placebo-corrected LS mean difference of change from Baseline (healthy subjects; [3]): 1.132 mm Hg
- DBP, placebo-corrected LS mean difference of change from Baseline (healthy subjects; [4]): 1.540 mm Hg
- E/A ratio, placebo-corrected LS mean difference of change from Baseline (healthy subjects; [4]): −0.047
- E/e′(lateral), placebo-corrected LS mean difference of change from Baseline (healthy subjects; [4]): −0.063
- HR, placebo-corrected LS mean difference of change from Baseline (healthy subjects; [4]): 2.871 bpm
- MPI, placebo-corrected LS mean difference of change from Baseline (healthy subjects; [4]): 0.033
- SBP, placebo-corrected LS mean difference of change from Baseline (healthy subjects; [4]): −1.572 mm Hg
- plasma concentrations at which PD effects were discernable (healthy subjects; echocardiographic measures): ≥ 1000 ng/mL
- IVRT (mitral inflow doppler), placebo-corrected LS mean difference (healthy subjects; [5]): 12.0 ms
- stroke volume, placebo-corrected LS mean difference±SE (healthy subjects; [5]): 8.20 ± 3.99 mL
- maximum troponin I level, one subject ([1]; 550 mg, 24 hours post-dose (4×ULN)): 0.12 ng/mL
- TEAE: Any SOC, any PT [1, 6]: 2 (25.0) n (%)
- TEAE: Dyspnea [1, 6]: 1 (12.5) n (%)
- TEAE: Fatigue [1, 6]: 1 (12.5) n (%)
- TEAE: Infusion site discomfort [1, 6]: 1 (12.5) n (%)
- TEAE: Urinary tract infection [1, 6]: 1 (12.5) n (%)
- TEAE: Any SOC, any PT [1, 7]: 5 (62.5) n (%)
- TEAE: Bursitis [1, 7]: 1 (12.5) n (%)
- TEAE: Diarrhoea [1, 7]: 1 (12.5) n (%)
- TEAE: Hypomagnesemia [1, 7]: 1 (12.5) n (%)
- TEAE: Oral contusion [1, 7]: 1 (12.5) n (%)
- TEAE: Proteinuria [1, 7]: 1 (12.5) n (%)
- TEAE: Anemia [1, 8]: 1 (25.0) n (%)
- TEAE: Any SOC, any PT [1, 8]: 3 (75.0) n (%)
- TEAE: Neck pain [1, 8]: 1 (25.0) n (%)
- TEAE: Orthostatic hypotension [1, 8]: 1 (25.0) n (%)
- TEAE: Ventricular extrasystoles [1, 8]: 1 (25.0) n (%)
- TEAE: Any SOC, any PT [1, 9]: 1 (50.0) n (%)
- TEAE: Cardiac discomfort [1, 9]: 1 (50.0) n (%)
- TEAE: Dyspnea [1, 9]: 1 (50.0) n (%)
- TEAE: Troponin increase [1, 9]: 1 (50.0) n (%)
- TEAE: Anemia [1, 10]: 1 (8.3) n (%)
- TEAE: Any SOC, any PT [1, 10]: 10 (83.3) n (%)
- TEAE: Bursitis [1, 10]: 1 (8.3) n (%)
- TEAE: Cardiac discomfort [1, 10]: 1 (8.3) n (%)
- TEAE: Diarrhoea [1, 10]: 1 (8.3) n (%)
- TEAE: Diverticulitis [1, 10]: 1 (8.3)− n (%)
- TEAE: Dyspnea [1, 10]: 1 (8.3) n (%)
- TEAE: Fatigue [1, 10]: 1 (8.3) n (%)
- TEAE: Hypomagnesemia [1, 10]: 1 (8.3) n (%)
- TEAE: Infusion site discomfort [1, 10]: 1 (8.3) n (%)
- TEAE: Neck pain [1, 10]: 1 (8.3) n (%)
- TEAE: Oral contusion [1, 10]: 1 (8.3) n (%)
- TEAE: Orthostatic hypotension [1, 10]: 1 (8.3) n (%)
- TEAE: Proteinuria [1, 10]: 1 (8.3) n (%)
- TEAE: Troponin increase [1, 10]: 1 (8.3) n (%)
- TEAE: Urinary tract infection [1, 10]: 1 (8.3) n (%)
- TEAE: Ventricular extrasystoles [1, 10]: 1 (8.3) n (%)
